Consider 1 molecule from US20260373226A1, “METHODS AND COMPOSITIONS FOR THE TREATMENT OF NEURODEGENERATIVE DISEASE” (Stealth BioTherapeutics Inc., priority 2022, published 2026).

The structures appear in SMILES notation.

Data set [1] in a line: SBT-272 level in brain homogenates after ET-1 injection. It is filed as in vivo. As to conditions: rat hemibrain, 24 hours after final treatment. From the text: FIG. 2B is a schematic showing the experimental design. Dotted lines indicate left and right subsection of hemibrain used for RCR and PK analysis (FIG. 2B). FIG. 2C: individual respiratory control ratios (RCR) per animal (n=8 per group) from the stroke-induced subsection of the right hemisphere. FIG. 2D: SBT-272 level in the brain homogenates from the same hemisphere after ET-1 injection. ET1=endothelin-1, vasoconstrictive peptide (*P<0.05, Kruskal-Wallis followed by Dunn's test).
Improved respiratory control ratio after cerebral ischemia reperfusion. To assess its pharmacodynamic effect on mitochondrial function in the brain, SBT-272 was tested in a rat model of acute ischemia. The mitochondrial effects of SBT-272 were determined using the respiratory control ratio (RCR), the ratio of coupled respiration (supporting oxidative phosphorylation) to respiratory rate in the absence of ADP (“leak” respiration). The high mitochondrial RCR in sham-treated animals (9.0±0.1) confirmed that the mitochondrial were healthy, as the majority of respiration accounted for replenishing cellular ATP levels (FIG. 2C).

Data set [2] has as its system models of neurodegeneration. The data set can be described thus: In vitro effect concentration (in vitro-in vivo correlation). It is filed as cell-based. The settings on record: FIG. 3A. From the text:
(§1) See Guatam M., Platform presentation. NEALS, 2022. […] See Keefe, et al. (2019); Gautam, et al. (2022); Guatam, et al. (2021). Gautam, et al., SBT-272 improved mitochondria structure and function and preserved upper motor neurons with TDP-43 pathology, Platform poster presentation, presented at NEALS poster session (2022); Bido, et al. (2021); Silva, et al. (2022); and Zariwala, et al., Effects of the mitochondria-targeting small molecule SBT-272 in the R6/2 transgenic mice of Huntington's Disease, Poster presented at Keystone Symposia poster Session, 2022.

Data set [3] has as its system models of neurodegeneration. The data set can be described thus: In vivo effect brain concentration (in vitro-in vivo correlation).
From the text: as §1

The nature of data set [4]: Tolerability in nonhuman primates, 10 daily SC injections. It is filed as in vivo, cynomolgus monkey. The settings on record: 10 days. The procedure: Pharmacokinetic profile of SBT-272 in nonhuman primate plasma, CSF, and brain. The objective of this study was to determine the pharmacokinetic profile of SBT-272 in CSF and plasma when delivered by subcutaneous (SC) injection for 10 days to cynomolgus monkeys. SBT-272 solution was administered daily by SC injection for 10 days. The following parameters and endpoints were evaluated in this study: mortality, clinical observations, body weights, pharmacokinetic samples (CSF and plasma), and selected tissue collection. There was no mortality during the study. […] Additional details regarding the experimental protocol are provided below.
Test System. Details Regarding the Test System are Provided Below: • Species: Nonhuman primate • Strain/Breed: Cynomolgus monkey • Animal Condition: Non-naïve • Animal Procurement Method: In-house colony • Animal Supplier: Charles River Laboratories • Animal Supplier Location: 531 Boul des Prairies, Laval, QC H7V 1B7, Canada • Animal Origin: Asia • Number of Males: 3 • Age at the Initiation of Dosing: 18 to 60 months • Weight at the Initiation of Dosing: 1.4 to 5.0 kg
• Route of Administration: Subcutaneous injection into the scapular and mid-dorsal areas • Treatment Frequency: Daily • Treatment Duration: 10 days • Method: The first day of dosing is designated as Day 1. Dose formulations are allowed to warm up at ambient temperature for at least 30 minutes prior to dosing, as appropriate. The animals are temporarily restrained for dose administration and are not be sedated. The volume for each dose is administered over 1 (preferred) or 2 (as necessary) separate injections within the designated area. Injection sites are rotated daily (see FIG. 4B). If a designated subcutaneous test site is not available for a given animal on any day, then the next available test site in the rotation should be used for dosing. The injection area is marked as frequently as required to allow appropriate visualization of administration sites. Hair may be clipped or shaved if required to improve visualization of the injection sites. […]

`Cc1cc(O)cc(C)c1C[C@H](NC(=O)[C@H](N)CCCNC(=N)N)C(=O)N[C@@H](CCCCN)c1nc(Cc2ccccc2)no1` [SBT-272, (R)-2-amino-N—((S)-1-(((S)-5-amino-1-(3-benzyl-1,2,4-oxadiazol-5-yl)pentyl)amino)-3-(4-hydroxy-2,6-dimethylphenyl)-1-oxopropan-2-yl)-5-guanidinopentanamide]: the “brain concentration, dose relation” value in data set [1] was “dose proportional”. The “optimal in vitro effects, concentration” value in data set [2] was in the range of 10 to 100 nM. The “optimal in vivo effects, concentration” value in data set [3] (FIG. 3B) lay in the range of 10 to 100 nM. In addition, the “brain concentration as a potential target for pharmacodynamic effect” value in data set [3] (from in vitro and in vivo correlations) lay within 10 to 100 nM. In data set [4] (5 mg/kg/day SC), the “body weight differences related to administration” value is “no differences in body weights” and the mortality entry was “no mortality”. In addition, in data set [4] (SC injection at 5 mg/kg/day), the tolerability entry is “well tolerated”.
